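Exposure lasted 48 hours, with cells grown in 96-well plates and compounds tested at five concentrations. GI50 = concentration required for 50% inhibition of growth. TGI denotes the concentration required for complete inhibition of growth.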
system: MDA-MB-231 breast; test: DTP human tumour cell line panel, 48 h

SMILES | GI50 [µM] | TGI [µM]
CC(C)(C)OC(=O)N(CCCN(CCn1c2c(c3ccccc3c1=O)C(=O)c1ccccc1-2)C(=O)OC(C)(C)C)CCn1c2c(c3ccccc3c1=O)C(=O)c1ccccc1-2 | > 50 | > 50
Cc1c2c(nn1-c1ccc(S(=O)(=O)/N=C3\SCC(=O)N3C(=O)c3ccccc3)cc1)-c1ccccc1CC2 | 24 | 58.7
Cn1cc(-c2csc(-c3cccc(F)c3)n2)c2cccnc21 | 16.8 | 35.3
COc1cc([N+](=O)[O-])ccc1NC(=O)C(F)(F)F | – | > 100
O=C(O)C1C(C(=O)O)C(C(=O)O)C1C(=O)O (stereo not drawn) | – | > 100
C[C@]12CC[C@@H]3c4ccc(Oc5nc(N6CC6)nc(N6CC6)n5)cc4CC[C@H]3[C@@H]1CCC2=O | 10.2 | 25.2
COc1cc(C(=O)O[C@H](C(N)=O)[C@]2(C)CO2)c2ccccc2c1 | 13 | 27.7
CCCCC/C=C/C/C=C/CCCCCCCC1=NC(C)(C)CN1C(C)C | 1.75 | 4.36

system: UACC-257 melanoma; test: DTP human tumour cell line panel, 48 h

SMILES | GI50 [µM] | TGI [µM]
CC(C)(C)OC(=O)N(CCCN(CCn1c2c(c3ccccc3c1=O)C(=O)c1ccccc1-2)C(=O)OC(C)(C)C)CCn1c2c(c3ccccc3c1=O)C(=O)c1ccccc1-2 | > 50 | > 50
CCCCCCCCCCCCCCCCOP(=O)(O)Oc1ccc(/C=C\c2ccc(OP(=O)(O)OCCCCCCCCCCCCCCCC)cc2)cc1 | – | > 100
CCN(CC)C(=O)C/C(C)=N/NC(=O)c1ccncc1 | – | > 100
Cc1c2c(nn1-c1ccc(S(=O)(=O)/N=C3\SCC(=O)N3C(=O)c3ccccc3)cc1)-c1ccccc1CC2 | 92.5 | > 100
CN(C)C(=S)/N=c1\ss/c(=N\C(=S)N(C)C)n1-c1ccc2c(c1)OCO2 | – | > 100
COC(=O)C(=O)C(C(=O)C(=O)Nc1ccc(C)cc1C)c1nc2ccccc2[nH]c1=O (stereo not drawn) | – | > 100
Cn1cc(-c2csc(-c3cccc(F)c3)n2)c2cccnc21 | 21.8 | 42.6
Cc1ccc(N=NC(C(=O)c2ccccc2)C(=O)c2ccccc2)cc1 | – | > 100
Cc1ccc(NC(=O)C2C(=O)N(c3ccc(C)c(C)c3)C(=O)/C2=N/O)cc1C (stereo not drawn) | – | > 100
Nc1c(-c2ccc(Br)cc2)[n+]([O-])c2ccccc2[n+]1[O-] | – | > 100
C#CC[C@]12CC(=O)CC[C@H]1CC(=O)C2 | – | > 100
CNC=O.[O]=[Ge].[O]=[Ge].[O]=[Ge].[O]=[Ge][OH].[O]=[Ge][OH] | – | > 100
N#CCCN(c1ccc(/C=C2\N=C(c3ccc(Cl)cc3)OC2=O)cc1)S(=O)(=O)c1ccccc1 | – | > 100
Cc1cc(NS(=O)(=O)c2ccc(NC(=O)c3cccc4c(=O)c5ccccc5[nH]c34)cc2)no1 | – | > 100
O=C(/C=C/c1ccccc1Cl)c1ccccc1Cl | – | 60.4
COC(=O)C1=C(c2ccc3c(c2)OCO3)O[C@H](c2ccc3c(c2)OCO3)[C@H]1COC(C)=O | – | > 100
CC(C)=[CH][Sb]([Br])([CH]=C(C)C)([CH]=C(C)C)[CH]=C(C)C | 4.87 | > 100
CCOC(=O)[C@H]1Nc2ccc(C)cc2C2c3ccccc3CC21 (stereo partly drawn) | – | > 100
COc1cc([N+](=O)[O-])ccc1NC(=O)C(F)(F)F | – | > 100
N#CCCN(CCC#N)c1ccc(/C=C2\N=C(CN3C(=O)c4ccccc4C3=O)OC2=O)cc1 | – | > 100
CSc1nc(NC2OC(COC(C)=O)C(OC(C)=O)C(OC(C)=O)C2OC(C)=O)c2c(OC(C)=O)c(C)c(=O)oc2n1 (stereo not drawn) | – | > 100

SMILES | GI50 [µM] | TGI [µM]
O=C(NC1CCCCCC1)C1C(=O)N(C2CCCCCC2)C(=O)/C1=N\O (stereo not drawn) | – | > 100
O=C(O)C1C(C(=O)O)C(C(=O)O)C1C(=O)O (stereo not drawn) | – | > 100
COc1ccc(C(=O)O)c(Cc2cccc3ccccc23)c1 | – | > 100
CC#CC(=O)Nc1ccccc1CC(c1c[nH]c2ccccc12)c1c[nH]c2ccccc12 | – | 57.4
NCCCNCCSSCCCCS(=O)O | – | 78.5
COC(=O)C(=O)C(C(=O)C=C(C)C)C(=O)C(=O)Nc1ccc(Cl)cc1C (stereo not drawn) | – | > 100
C[C@]12CC[C@@H]3c4ccc(Oc5nc(N6CC6)nc(N6CC6)n5)cc4CC[C@H]3[C@@H]1CCC2=O | 2.89 | 17.5
COc1cc(C(=O)O[C@H](C(N)=O)[C@]2(C)CO2)c2ccccc2c1 | 31.8 | > 100
Cc1cccc(C(C)(C)C)c1NC(=O)CCc1n[nH]c(=S)o1 | – | > 100
Cc1ccc(C(=O)/C=C/c2ccccc2O)c(C)c1 | – | > 100
O=S(O)CCCCSSCCCCSSCCCCS(=O)O | – | > 100
N#Cc1cnsc1 | – | > 100
CC(=O)SCCC1c2[nH]c3ccccc3c2CCN1O (stereo not drawn) | – | > 100
CCOC(=O)NC(=O)c1cn(CCCOC(=O)NCCCCCCNC(=O)OCCCn2c(=O)c(C(=O)NC(=O)OCC)cn(C)c2=O)c(=O)n(C)c1=O | – | > 100
CCCCn1c(-c2ccc(C(=O)O/N=C(\N)c3ccc(OC)cc3)cc2)nc(-c2ccccc2)c1-c1ccccc1 | 3.61 | > 100
O=C1C2=C(CC3C(C2)C3(Br)Br)C(=O)C2=C1CC1C(C2)C1(Br)Br (stereo not drawn) | – | > 100
CC(C)=CC(=O)N1CCN(C(=O)C=C(C)C)CC1 | – | > 100
CCCCC/C=C/C/C=C/CCCCCCCC1=NC(C)(C)CN1C(C)C | 1.72 | 3.2
CC(=O)c1ccc(NC(=O)/C(Cc2ccccn2)=N/NC(=O)C[N+](C)(C)C)cc1 | – | > 100
CCc1cccc(C)c1NC(C)=O | – | > 100

system: RPMI-8226 leukemia; test: DTP human tumour cell line panel, 48 h

SMILES | GI50 [µM] | TGI [µM]
CC(C)(C)OC(=O)N(CCCN(CCn1c2c(c3ccccc3c1=O)C(=O)c1ccccc1-2)C(=O)OC(C)(C)C)CCn1c2c(c3ccccc3c1=O)C(=O)c1ccccc1-2 | 7.21 | 48.6
CCCCCCCCCCCCCCCCOP(=O)(O)Oc1ccc(/C=C\c2ccc(OP(=O)(O)OCCCCCCCCCCCCCCCC)cc2)cc1 | – | 80
CCN(CC)C(=O)C/C(C)=N/NC(=O)c1ccncc1 | – | > 100
COC(=O)C(=O)C(C(=O)C(=O)Nc1ccc(C)cc1C)c1nc2ccccc2[nH]c1=O (stereo not drawn) | – | > 100
Cn1cc(-c2csc(-c3cccc(F)c3)n2)c2cccnc21 | 25.2 | > 100
Cc1ccc(N=NC(C(=O)c2ccccc2)C(=O)c2ccccc2)cc1 | – | 67.4
Cc1ccc(NC(=O)C2C(=O)N(c3ccc(C)c(C)c3)C(=O)/C2=N/O)cc1C (stereo not drawn) | – | > 100
Nc1c(-c2ccc(Br)cc2)[n+]([O-])c2ccccc2[n+]1[O-] | – | 78.3
C#CC[C@]12CC(=O)CC[C@H]1CC(=O)C2 | – | > 100
CNC=O.[O]=[Ge].[O]=[Ge].[O]=[Ge].[O]=[Ge][OH].[O]=[Ge][OH] | – | > 100
N#CCCN(c1ccc(/C=C2\N=C(c3ccc(Cl)cc3)OC2=O)cc1)S(=O)(=O)c1ccccc1 | – | > 100
Cc1cc(NS(=O)(=O)c2ccc(NC(=O)c3cccc4c(=O)c5ccccc5[nH]c34)cc2)no1 | – | > 100
O=C(/C=C/c1ccccc1Cl)c1ccccc1Cl | – | 44.7
COC(=O)C1=C(c2ccc3c(c2)OCO3)O[C@H](c2ccc3c(c2)OCO3)[C@H]1COC(C)=O | – | > 100
CC(C)=[CH][Sb]([Br])([CH]=C(C)C)([CH]=C(C)C)[CH]=C(C)C | 0.781 | 38.4
CCOC(=O)[C@H]1Nc2ccc(C)cc2C2c3ccccc3CC21 (stereo partly drawn) | – | > 100
COc1cc([N+](=O)[O-])ccc1NC(=O)C(F)(F)F | – | > 100
N#CCCN(CCC#N)c1ccc(/C=C2\N=C(CN3C(=O)c4ccccc4C3=O)OC2=O)cc1 | – | > 100

SMILES | GI50 [µM] | TGI [µM]
CSc1nc(NC2OC(COC(C)=O)C(OC(C)=O)C(OC(C)=O)C2OC(C)=O)c2c(OC(C)=O)c(C)c(=O)oc2n1 (stereo not drawn) | – | > 100
O=C(NC1CCCCCC1)C1C(=O)N(C2CCCCCC2)C(=O)/C1=N\O (stereo not drawn) | – | 83.3
O=C(O)C1C(C(=O)O)C(C(=O)O)C1C(=O)O (stereo not drawn) | – | > 100
CC#CC(=O)Nc1ccccc1CC(c1c[nH]c2ccccc12)c1c[nH]c2ccccc12 | – | 58.1
NCCCNCCSSCCCCS(=O)O | – | > 100
COC(=O)C(=O)C(C(=O)C=C(C)C)C(=O)C(=O)Nc1ccc(Cl)cc1C (stereo not drawn) | – | > 100
C[C@]12CC[C@@H]3c4ccc(Oc5nc(N6CC6)nc(N6CC6)n5)cc4CC[C@H]3[C@@H]1CCC2=O | 2.17 | 7.58
COc1cc(C(=O)O[C@H](C(N)=O)[C@]2(C)CO2)c2ccccc2c1 | 22.8 | > 100
Cc1cccc(C(C)(C)C)c1NC(=O)CCc1n[nH]c(=S)o1 | – | 51.6
Cc1ccc(C(=O)/C=C/c2ccccc2O)c(C)c1 | – | > 100
N#Cc1cnsc1 | – | > 100
CC(=O)SCCC1c2[nH]c3ccccc3c2CCN1O (stereo not drawn) | – | > 100
CCOC(=O)NC(=O)c1cn(CCCOC(=O)NCCCCCCNC(=O)OCCCn2c(=O)c(C(=O)NC(=O)OCC)cn(C)c2=O)c(=O)n(C)c1=O | – | > 100
CC(C)=CC(=O)N1CCN(C(=O)C=C(C)C)CC1 | – | > 100
CC(=O)c1ccc(NC(=O)/C(Cc2ccccn2)=N/NC(=O)C[N+](C)(C)C)cc1 | – | > 100
CCc1cccc(C)c1NC(C)=O | – | > 100
O=C(CC(=O)N1N=C(c2ccccc2)C(N=Nc2ccc(Cl)cc2)C1=O)Nc1ccccc1Cl (stereo not drawn) | – | > 100
